Assay results published in ChEMBL document CHEMBL3102805, “Truncated Orexin Peptides: Structure-Activity Relationship Studies” (ACS Med Chem Lett, 2013).
The source made the active and inactive calls. No cut-off for these calls is given here. Where a SMILES comes first, the peptide text is derived from it.

Tests used:
Type in all cases: functional, cell-based
[1] = target: T1, Orexin/Hypocretin receptor type 1 (Homo sapiens) (UniProt O43613); assay: Agonist activity at human OX1 receptor overexpressed in CHO-RD-HGA16 cells assessed as calcium mobilization at 10 uM after 15 mins by fluorescence assay relative to control
T1 sequence (whole entry): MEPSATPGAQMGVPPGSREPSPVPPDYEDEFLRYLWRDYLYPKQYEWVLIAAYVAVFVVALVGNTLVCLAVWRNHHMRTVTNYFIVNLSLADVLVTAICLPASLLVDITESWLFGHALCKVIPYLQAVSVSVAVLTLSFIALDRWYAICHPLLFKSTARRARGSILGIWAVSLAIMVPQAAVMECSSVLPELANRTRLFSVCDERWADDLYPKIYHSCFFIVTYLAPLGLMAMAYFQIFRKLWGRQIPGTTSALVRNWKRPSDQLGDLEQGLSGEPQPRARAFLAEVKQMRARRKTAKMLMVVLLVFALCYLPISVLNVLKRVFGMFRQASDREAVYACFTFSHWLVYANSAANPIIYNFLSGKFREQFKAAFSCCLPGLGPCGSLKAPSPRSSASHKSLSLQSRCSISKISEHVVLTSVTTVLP

[2] = target: T2, Orexin receptor type 2 (Homo sapiens) (UniProt O43614); assay: Agonist activity at human OX2 receptor overexpressed in CHO-RD-HGA16 cells assessed as calcium mobilization at 10 uM after 15 mins by fluorescence assay relative to control
T2 sequence (whole entry): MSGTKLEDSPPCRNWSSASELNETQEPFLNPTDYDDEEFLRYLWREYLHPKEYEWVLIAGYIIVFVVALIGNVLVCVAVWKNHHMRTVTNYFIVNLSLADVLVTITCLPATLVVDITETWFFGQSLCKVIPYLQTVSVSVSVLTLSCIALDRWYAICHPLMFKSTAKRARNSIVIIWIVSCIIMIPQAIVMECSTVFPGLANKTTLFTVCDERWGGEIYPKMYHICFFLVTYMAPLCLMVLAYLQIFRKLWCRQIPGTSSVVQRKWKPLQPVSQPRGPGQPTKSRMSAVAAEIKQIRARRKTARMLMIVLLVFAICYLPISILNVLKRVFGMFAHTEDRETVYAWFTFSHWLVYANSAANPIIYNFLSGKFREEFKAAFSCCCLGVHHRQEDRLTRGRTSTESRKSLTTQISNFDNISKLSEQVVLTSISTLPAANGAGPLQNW

Orexin receptor type 2 = target: T3, Orexin receptor type 2 (Homo sapiens, UniProt O43614); assay: Agonist activity at human OX2 receptor overexpressed in CHO-RD-HGA16 cells assessed as calcium mobilization after 15 mins by fluorescence assay
T3 sequence (O43614 whole entry): T2 sequence (whole entry)

Activity [1] | Activity [2] | Calcium response at 10 uM relative to control [1] [%] | EC50 (Orexin receptor type 2) [nM] | Percent activation at 10 uM [2] [%] | SMILES
inactive |  |  |  | < 50 | CC[C@H](C)[C@H](NC(=O)CNC(=O)[C@H](C)NC(=O)[C@H](C)NC(=O)[C@H](Cc1cnc[nH]1)NC(=O)[C@@H](CC(N)=O)NC(=O)CNC(=O)[C@H](C)NC(=O)CNC(=O)[C@H](Cc1cnc[nH]1)NC(=O)[C@H](CC(C)C)NC(=O)[C@H](CC(C)C)NC(=O)[C@H](CCC(=O)O)NC(=O)[C@@H](N)Cc1ccc(O)cc1)C(=O)N[C@@H](CC(C)C)C(=O)N[C@H](C(=O)N[C@@H](CC(C)C)C(N)=O)[C@@H](C)O
inactive |  |  |  | < 50 | CC[C@H](C)[C@H](NC(=O)CNC(=O)[C@H](C)NC(=O)[C@H](C)NC(=O)[C@H](Cc1cnc[nH]1)NC(=O)[C@H](CC(N)=O)NC(=O)CNC(=O)[C@H](C)NC(=O)CNC(=O)[C@H](Cc1cnc[nH]1)NC(=O)[C@H](CC(C)C)NC(=O)[C@H](CC(C)C)NC(=O)[C@H](CCC(=O)O)NC(=O)[C@@H](N)Cc1ccc(O)cc1)C(=O)N[C@H](CC(C)C)C(=O)N[C@H](C(=O)N[C@@H](CC(C)C)C(N)=O)[C@@H](C)O
inactive | inactive |  |  |  | CC[C@H](C)[C@H](NC(=O)CNC(=O)[C@H](C)NC(=O)[C@H](C)NC(=O)[C@H](Cc1cnc[nH]1)NC(=O)[C@H](CC(N)=O)NC(=O)CNC(=O)[C@H](C)NC(=O)CNC(=O)[C@H](Cc1cnc[nH]1)NC(=O)[C@H](CC(C)C)NC(=O)[C@H](CC(C)C)NC(=O)[C@H](CCC(=O)O)NC(=O)[C@@H](N)Cc1ccc(O)cc1)C(=O)N[C@@H](CC(C)C)C(=O)N[C@H](C(=O)N[C@H](CC(C)C)C(N)=O)[C@@H](C)O
inactive |  |  |  | < 50 | CC[C@H](C)[C@H](NC(=O)CNC(=O)[C@@H](C)NC(=O)[C@H](C)NC(=O)[C@H](Cc1cnc[nH]1)NC(=O)[C@H](CC(N)=O)NC(=O)CNC(=O)[C@H](C)NC(=O)CNC(=O)[C@H](Cc1cnc[nH]1)NC(=O)[C@H](CC(C)C)NC(=O)[C@H](CC(C)C)NC(=O)[C@H](CCC(=O)O)NC(=O)[C@@H](N)Cc1ccc(O)cc1)C(=O)N[C@@H](CC(C)C)C(=O)N[C@H](C(=O)N[C@@H](CC(C)C)C(N)=O)[C@@H](C)O

The remaining lines, values behind:

SMILES | Activity [1] | Activity [2] | Calcium response at 10 uM relative to control [1] [%] | EC50 (Orexin receptor type 2) [nM] | Percent activation at 10 uM [2] [%]
CC[C@H](C)[C@H](NC(=O)CNC(=O)[C@H](C)NC(=O)[C@H](C)NC(=O)[C@H](Cc1cnc[nH]1)NC(=O)[C@H](CC(N)=O)NC(=O)CNC(=O)[C@H](C)NC(=O)CNC(=O)[C@H](Cc1cnc[nH]1)NC(=O)[C@H](CC(C)C)NC(=O)[C@H](CC(C)C)NC(=O)[C@H](CCC(=O)O)NC(=O)[C@@H](N)Cc1ccc(O)cc1)C(=O)N[C@@H](CC(C)C)C(=O)N[C@@H](C(=O)N[C@@H](CC(C)C)C(N)=O)[C@H](C)O | inactive | inactive |  |  | 
CC[C@@H](C)[C@@H](NC(=O)CNC(=O)[C@H](C)NC(=O)[C@H](C)NC(=O)[C@H](Cc1cnc[nH]1)NC(=O)[C@H](CC(N)=O)NC(=O)CNC(=O)[C@H](C)NC(=O)CNC(=O)[C@H](Cc1cnc[nH]1)NC(=O)[C@H](CC(C)C)NC(=O)[C@H](CC(C)C)NC(=O)[C@H](CCC(=O)O)NC(=O)[C@@H](N)Cc1ccc(O)cc1)C(=O)N[C@@H](CC(C)C)C(=O)N[C@H](C(=O)N[C@@H](CC(C)C)C(N)=O)[C@@H](C)O | inactive | inactive |  |  | 
CC[C@H](C)[C@H](NC(=O)CNC(=O)[C@H](C)NC(=O)[C@H](C)NC(=O)[C@H](Cc1cnc[nH]1)NC(=O)[C@H](CC(N)=O)NC(=O)CNC(=O)[C@H](CO)NC(=O)[C@H](C)NC(=O)[C@H](CCC(N)=O)NC(=O)[C@H](CC(C)C)NC(=O)[C@H](CC(C)C)NC(=O)[C@H](CCCNC(=N)N)NC(=O)[C@@H](N)CCC(N)=O)C(=O)N[C@@H](CC(C)C)C(=O)N[C@H](C(=O)N[C@@H](CCSC)C(N)=O)[C@@H](C)O (H-QRLLQASGNHAAGILTM-NH2) |  |  | < 50 | 1040 | 
CC[C@H](C)[C@H](NC(=O)CNC(=O)[C@H](C)NC(=O)[C@H](C)NC(=O)[C@H](Cc1cnc[nH]1)NC(=O)[C@H](CC(N)=O)NC(=O)CNC(=O)[C@H](C)NC(=O)CNC(=O)[C@H](Cc1cnc[nH]1)NC(=O)[C@H](CC(C)C)NC(=O)[C@H](CC(C)C)NC(=O)[C@H](CCC(=O)O)NC(=O)[C@@H](N)Cc1ccc(O)cc1)C(=O)N[C@@H](CC(C)C)C(=O)N[C@@H](C)C(=O)N[C@@H](CC(C)C)C(N)=O (H-YELLHGAGNHAAGILAL-NH2) |  |  | < 50 |  | < 50
CC[C@H](C)[C@H](NC(=O)CNC(=O)[C@H](C)NC(=O)[C@H](C)NC(=O)[C@H](Cc1cnc[nH]1)NC(=O)[C@H](CC(N)=O)NC(=O)CNC(=O)[C@H](C)NC(=O)CNC(=O)[C@H](Cc1cnc[nH]1)NC(=O)[C@H](CC(C)C)NC(=O)[C@H](CC(C)C)NC(=O)[C@H](CCC(=O)O)NC(=O)[C@@H](N)Cc1ccc(O)cc1)C(=O)N[C@@H](C)C(=O)N[C@H](C(=O)N[C@@H](CC(C)C)C(N)=O)[C@@H](C)O (H-YELLHGAGNHAAGIATL-NH2) | inactive | inactive |  |  | 
CC(C)C[C@H](NC(=O)[C@@H](NC(=O)[C@H](CC(C)C)NC(=O)[C@H](C)NC(=O)CNC(=O)[C@H](C)NC(=O)[C@H](C)NC(=O)[C@H](Cc1cnc[nH]1)NC(=O)[C@H](CC(N)=O)NC(=O)CNC(=O)[C@H](C)NC(=O)CNC(=O)[C@H](Cc1cnc[nH]1)NC(=O)[C@H](CC(C)C)NC(=O)[C@H](CC(C)C)NC(=O)[C@H](CCC(=O)O)NC(=O)[C@@H](N)Cc1ccc(O)cc1)[C@@H](C)O)C(N)=O (H-YELLHGAGNHAAGALTL-NH2) | inactive | inactive |  |  | 
CC[C@H](C)[C@H](NC(=O)[C@H](C)NC(=O)[C@H](C)NC(=O)[C@H](C)NC(=O)[C@H](Cc1cnc[nH]1)NC(=O)[C@H](CC(N)=O)NC(=O)CNC(=O)[C@H](C)NC(=O)CNC(=O)[C@H](Cc1cnc[nH]1)NC(=O)[C@H](CC(C)C)NC(=O)[C@H](CC(C)C)NC(=O)[C@H](CCC(=O)O)NC(=O)[C@@H](N)Cc1ccc(O)cc1)C(=O)N[C@@H](CC(C)C)C(=O)N[C@H](C(=O)N[C@@H](CC(C)C)C(N)=O)[C@@H](C)O (H-YELLHGAGNHAAAILTL-NH2) |  |  | < 50 |  | < 50
CC[C@H](C)[C@H](NC(=O)CNC(=O)[C@H](C)NC(=O)[C@H](C)NC(=O)[C@H](Cc1cnc[nH]1)NC(=O)[C@H](CC(N)=O)NC(=O)CNC(=O)[C@H](C)NC(=O)CNC(=O)[C@H](Cc1cnc[nH]1)NC(=O)[C@H](CC(C)C)NC(=O)[C@H](CC(C)C)NC(=O)[C@H](CCC(=O)O)NC(=O)[C@@H](N)Cc1ccc(O)cc1)C(=O)N[C@@H](CC(C)C)C(=O)N[C@H](C(=O)N[C@@H](C)C(N)=O)[C@@H](C)O (H-YELLHGAGNHAAGILTA-NH2) |  | inactive | < 50 |  | 
